Data reported in patent US20100190187A1, “Screening Assays for Antagonists and Analyses of Cardiac Hypertrophy” (The Regents of the University of Michigan Office of …, priority 2006, published 2010).

Molecular target: T1, VDRtt (Rattus norvegicus, UniProt P13053)
T1 construct: from tissue; host or cells: rat heart ventricle, crude myocardial membranes (7,700-40,000 x g pellet)
T1 sequence (P13053 1-423): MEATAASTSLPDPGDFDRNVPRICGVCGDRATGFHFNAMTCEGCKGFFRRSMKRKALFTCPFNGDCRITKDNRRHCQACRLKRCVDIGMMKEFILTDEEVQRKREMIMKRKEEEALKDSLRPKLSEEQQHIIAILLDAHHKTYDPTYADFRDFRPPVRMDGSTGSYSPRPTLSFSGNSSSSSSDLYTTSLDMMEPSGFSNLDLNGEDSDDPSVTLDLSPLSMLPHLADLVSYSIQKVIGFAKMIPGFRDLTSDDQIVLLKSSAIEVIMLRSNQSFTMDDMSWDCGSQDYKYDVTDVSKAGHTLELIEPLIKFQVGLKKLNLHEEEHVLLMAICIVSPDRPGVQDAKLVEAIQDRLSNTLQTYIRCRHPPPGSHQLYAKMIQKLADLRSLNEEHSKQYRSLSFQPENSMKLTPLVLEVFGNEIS
Assay: Competition with [3H] 1α,25(OH)2 vitamin D3 for binding to rat heart membrane preparations
Conditions: radioligand binding experiments, FIGS. 6 and 7
Procedure: Crude myocardial membranes were prepared as follows: whole hearts were removed from three month old female Sprague-Dawley rats and were cannulated and perfused two times with 10 mls ice-cold DPBS then once with 3 mls of ice-cold TKED lysis buffer (50 mM Tris-HCl, 150 mM KCl, 1.5 mM EDTA, 10 mM dithiothreitol, pH7.4 and a 1/100 dilution of Sigma Protease Inhibitor Cocktail [P8340]). Ventricles were cut away from atria and connective tissue and then minced, transferred to a 13 ml round-bottom Sarstedt tube and washed two times in 10 mls TKED lysis buffer by spinning briefly at full speed in a clinical centrifuge then aspirating. Tissue was kept ice-cold as much as possible. Washed minced ventricle tissue was then homogenized on ice with a Tekmar Tissuemizer in 5 volumes (˜5 mls) of TKED lysis buffer using 10 strokes at setting 30 followed by 5 strokes at setting 50. The resulting homogenate was transferred to a 15 ml Corex tube and centrifuged in a Beckman JA-20 rotor at 8,000 rpm (7,700 g) for 15 minutes at 4° C. The supernatant was transferred to a new 15 ml Corex tube and centrifuged in a Beckman JA-20 rotor at 18,200 rpm (40,000 g) for 25 minutes at 4° C. The resulting membrane pellet was washed once in a few mls TKED lysis buffer, resuspended in 0.5 mls TKED lysis buffer then homogenized with 3 strokes of a 2 ml Wheaton Potter-Elvejhem tissue grinder.
Ligand binding assays to determine the ability of competitors or test compounds to compete with [^3H] […] 1α,25(OH)2 vitamin D3 (specific activity 176 Ci/mmol) and various concentrations of competitor or test compound. Nonspecific binding is determined in the presence of cold 1α,25(OH)2 Vitamin D3 (2 μM) for vehicle and each competitor or test compound. Assays are performed at room temperature for 60 minutes. Reactants are then filtered over glass fiber filters (Whatman GF-C) and washed three times with 5 mls ice-cold TKEDN binding buffer. […] Tritiated [^3H] 1α,25(OH)2 vitamin D3 can be obtained from G.E. Healthcare and dried using a nitrogen evaporator and resuspended in ethanol. 1α,25(OH)2 Vitamin D3 and competitors or test compounds can be obtained from Sigma-Aldrich and diluted in ethanol. Vitamin D5 was obtained from the University of Illinois and was diluted in ethanol.

C=C1CC[C@H](O)C/C1=C/C=C1\CCC[C@]2(C)[C@@H]([C@H](C)CCCC(C)(C)O)CC[C@@H]12 [25-hydroxyvitamin D3]
binding of vitamin D analogs to VDRtt: binds with various affinities

C=C1CCC(O)C/C1=C\C=C1\CCCC2(C)C1CCC2C(C)CCC(O)C(C)(C)O (stereo not shown) [24,25 dihydroxyvitamin D3]
binding of vitamin D analogs to VDRtt: binds with various affinities

C=C1CC[C@H](O)C/C1=C/C=C1\CCC[C@]2(C)[C@@H]([C@H](C)CC[C@@H](CC)C(C)C)CC[C@@H]12 [Vitamin D5]
binding of vitamin D analogs to VDRtt: binds with various affinities

C=C1/C(=C\C=C2/CCC[C@]3(C)[C@@H]([C@H](C)CCC(O)C(C)(C)O)CC[C@@H]23)C[C@@H](O)CC1O (stereo partly shown) [1,24,25 trihydroxyvitamin D3]
binding of vitamin D analogs to VDRtt: binds with various affinities
